Reference: patent US20250018030A1, “PHARMACEUTICAL COMPOSITION FOR PROMOTING CANCER IMMUNOTHERAPY AND METHOD FOR PROMOTING CANCER IMMUNOTHERAPY” (China Medical University, priority 2023, published 2025)

Key:
[1] = tested on: Th17 cells; test: Cytokine staining of genipin-treated skewed Th17 cells; type: cell-based, Mouse; conditions: data not shown
Method: Mouse lymph nodes and spleens were harvested, and naïve CD4 or CD8 T cells isolated via magnetic bead separation (STEMCELL Technologies) and activated in α-CD3 (10 μg/ml) and α-CD28 (1 μg/ml) pre-coated 96-well plates. Skewing conditions were as follows: Th1 cells/Tc1 cells ([…] 10 μ/ml α-IL-4), Th2 cells/Tc2 cells (20 ng/ml IL-4 and 10 μ/ml α-IFN-γ), Th17 cells/Tc17 cells (20 ng/ml IL-6, 1.25 ng/ml […], 20 ng/ml IL-1β, 20 ng/ml IL-23, 10 μg/ml α-IFN-γ and 10 μg/ml α-IL-4), and Treg cells (5 ng/ml TGF-β, 10 μg/ml α-IFN-γ and 10 μg/ml α-IL-4) in the indicated medium. Cells were cultured for 4-5 days followed by treatment with genipin (3.125 μM, 6.25 μM, 12.5 μM) or DMSO for 12-16 hours.
(§1) Monoclonal antibodies were purchased from BD Biosciences or eBioscience. For intracellular cytokine staining (ICS), cells were first restimulated by PMA/ionomycin for 5 hours in the presence of GolgiStop (BD Biosciences), followed by surface epitope staining markers before being fixed/permeabilized (BD Cytofix/Cytoperm™) and stained with antibodies targeting intracellular antigens. Cells were finally fixed with 1.5% formaldehyde for 10 minutes at room temperature and analyzed on a FACSVerse flow cytometer (BD Bioscience). Data were analyzed using FlowJo software (Tree Star Inc.).

[2] = tested on: PBMC of PDAC patients; test: Ex vivo genipin treatment of PBMC of PDAC patients, flow cytometry; type: cell-based, human
Method: as §1
PDAC human subject study was approved by the Research Ethics Committee of China Medical University & Hospital (CMUH109-REC2-148). 10 ml of fresh blood and 0.1-0.5 mm^3 of tumor mass were collected on the same day from patients who underwent surgical resection. Monocytes were isolated from the patients' peripheral blood mononuclear cell (PBMC) or tumor mass. Cells were resuspended in RPMI medium containing 10% FBS and seeded at a density of 2×10^5/well in a 12-well plate. Cells were treated with genipin (12.5 μM, 25 μM) and incubated overnight before staining for the flow cytometry analysis.

[3] = tested on: Tc1 cells; test: Metabolic assays (Seahorse ECAR/OCR, mitochondrial pyruvate and acetyl CoA) in Tc1 cells; type: cell-based, Mouse
Method: The real-time extracellular acidification rate (ECAR) and oxygen consumption rate (OCR) were measured using a Seahorse XF24 analyzer (Seahorse Bioscience), within XF Glycolysis Stress and XF Cell Mito Stress Test kits used to assess glycolysis and oxidative phosphorylation. 5×10^5 cells exposed to the indicated treatments were plated in an XF-24 microplate coated with Cell-Tak (Corning) one day before the assay. ECAR and OCR were measured after metabolic manipulations by the addition of oligomycin, carbonyl cyanide-p-trifluoromethoxy-phenylhydrazone (FCCP), 2-deoxyglucose (2-DG) and rotenone/anti-mycin A (R/A). Calculations were conducted with Agilent Seahorse Wave Software for Agilent Seahorse XF analyzers (Seahorse Bioscience). For isolation of mitochondria, Tc1 cells were frozen and thawed to weaken the membranes and resuspended in Reagent A of a mitochondria isolation kit (ab110170, Abcam), before being homogenized and centrifuged at 1,000×g for 10 minutes at 4° C. Supernatant was saved (SN #1) and the pellet resuspended in Reagent B. After homogenization and centrifugation, supernatant was saved (SN #2). SN #1 and SN #2 were mixed thoroughly and centrifuged at 12,000×g for 15 minutes at 4° C. The pellet was collected in Reagent C supplemented with protease inhibitors and was used for the pyruvate and acetyl COA assays. Briefly, the mitochondrial pyruvate and acetyl CoA levels in the Tc1 cells were assessed using a commercial Pyruvate Assay Kit (ab65342, Abcam) and PicoProbe Acetyl COA Assay Kit (ab87546, Abcam) according to the manufacturer's instructions.

[4] = genipin-treated Tc1 cells, data not shown

## COC(=O)C1=CO[C@@H](O)[C@@H]2C(CO)=CC[C@H]12 [genipin]
[1]
  IFN-γ in Th17 cells: increased IFN-γ
  IL-17 expression in Th17 cells: without an impact on IL-17 expression
[2]; genipin 12.5, 25 μM overnight, FIG. 8A-8B
  Tc1 cells (IFN-γ-producing CD8+ T cells): increased Tc1 cells
[2]; genipin overnight, FIG. 8E
  Th1 cells population (IFN-γ-producing CD4+ T cells): no significant changes
[2]; genipin overnight, FIG. 8F
  Th17 cells (IL-17-producing CD4+ T cells): did not increase
[3]; genipin 12.5 μM, Seahorse XF24, FIG. 2E
  Glycolysis readout, ECAR: no functional impact
[3]; genipin 12.5 μM, Seahorse XF24, FIG. 2F
  Oxidative phosphorylation, OCR: promoted oxidative phosphorylation
[3]; genipin-treated Tc1 cells, FIG. 2G
  Acetyl CoA level in the mitochondria: increased the level of acetyl CoA
[3]; genipin-treated Tc1 cells, FIG. 2H
  Mitochondrial pyruvate: parallel increase
[3]; [4]
  Acetyl CoA level in the cytosol: increased the level of acetyl CoA
  Cytosolic fraction of pyruvate: decreased
